Experimental data from US11122801B2, “Inhibitors of enzymes that confer pesticide resistance” (APRESLABS LTD., priority 2015, dated 2021).

Assays:
[1] = system: Houseflies (Musca domestica); assay: Housefly topical mortality with α-cypermethrin and Syn A (Example 1); type: in vivo; settings: α-cypermethrin alone, 1 μL of 0.0025 g L^−1, after 24 hrs
Description: Houseflies (Musca domestica) were treated with 1 μL of a diagnostic concentration (0.0025 g L^−1) of α-cypermethrin, such that about 20% of the flies had died after 24 hrs.
With the addition of 1% ‘Syn A’, (i.e. 10 ug/fly) the potassium salts of fatty acids (C14-C18) obtained as a by-product of olive oil production, the mortality increased to about 70% after 24 hours. The potassium salt synergist was applied first, and the insecticide was applied within 1 hr of the application of the synergist.
The mortality rate when Syn A was used on its own was about 10%.

[2] = system: P450 activity derived from Meligethes aeneus; assay: P450 activity by deethylation of ethoxycoumarin (Example 7); type: biochemical; settings: equal concentrations, 30 ug/incubation
Description: P450 activity was measured by the deethylation of ethoxycoumarin.
(30 ug/incubation) as used in Example 5.

[3] = target: T1, resistance-associated esterase, E4 (Myzus persicae, UniProt P35501); assay: Inhibition of purified resistance-associated esterase E4, para-nitrophenyl acetate substrate; type: biochemical, M. persicae; settings: 3 μL 1% synergist, 10 minutes incubation, 1 mM para-nitrophenyl acetate, 405 nm
T1 sequence (P35501 24-552): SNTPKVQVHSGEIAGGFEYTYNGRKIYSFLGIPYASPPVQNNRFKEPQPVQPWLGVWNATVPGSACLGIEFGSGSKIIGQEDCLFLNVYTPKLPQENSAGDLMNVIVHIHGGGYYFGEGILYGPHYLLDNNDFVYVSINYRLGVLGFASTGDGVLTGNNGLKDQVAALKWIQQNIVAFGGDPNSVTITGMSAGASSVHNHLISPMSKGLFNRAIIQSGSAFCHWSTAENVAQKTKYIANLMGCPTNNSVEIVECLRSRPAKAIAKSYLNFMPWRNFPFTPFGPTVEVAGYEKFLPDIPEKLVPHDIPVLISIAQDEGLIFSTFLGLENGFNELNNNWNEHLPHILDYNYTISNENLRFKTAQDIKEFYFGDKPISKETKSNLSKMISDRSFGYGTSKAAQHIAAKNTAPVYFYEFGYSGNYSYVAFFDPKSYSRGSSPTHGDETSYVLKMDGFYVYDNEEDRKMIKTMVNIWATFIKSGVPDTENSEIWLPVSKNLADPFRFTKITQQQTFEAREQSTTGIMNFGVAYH
Description: The assay used 1 mM para-nitrophenyl acetate as a substrate. 10 μL dilute E4 in 40 μL phosphate buffer (pH 7.0) was incubated with 3 μL 1% synergist for 10 minutes. 200 μL of 1 mM para-nitrophenyl acetate was added and the remaining activity was measured at 405 nm in a microplate spectrophotometer (Molecular Devices). Inhibition by the same concentration of PBO is shown for comparison.

[4] = system: P450 activity derived from insecticide-resistant B-type B. tabaci; assay: P450 activity by deethylation of ethoxycoumarin (Example 5); settings: 1% (30 ug/incubation), 10 minutes incubation, 7-ethoxycoumarin
Description: P450 activity was measured by the deethylation of ethoxycoumarin. 50 μL of the enzyme in the presence/absence of synergists was incubated for 10 minutes after which […] of 0.5 mm 7-ethyoxycoumarin in a phosphate buffer (pH 7.8) was added/incubated for a further 5 minutes at 30° C. after which 10 μL of 9.6 mm NaDPH was added. Fluorometric units (Fu) were measured with excitation wavelengths of 370 nm and 460 nm.

`CC1(C)C(C=C(Cl)Cl)C1C(=O)OC(C#N)c1cccc(Oc2ccccc2)c1` (stereo not drawn) [α-cypermethrin] was tested, and the “flies died (mortality)” value [1] was “about 20%”.
In the case of `CCCCOCCOCCOCc1cc2c(cc1CCC)OCO2` [PBO, piperonyl butoxide], the “inhibition of P450 activity” value [2] is reported as “inhibition”.
For `CCCCCCCC/C=C\CCCCCCCC(=O)O` [oleic acid], the “inhibition of esterase E4” value [3] was “inhibition” and the “inhibition of P450 activity” value [4] was “inhibition”.
In the case of `CCCCC/C=C\C/C=C\CCCCCCCC(=O)O` [linoleic acid], the “inhibition of esterase E4” value [3] is reported as “inhibition”.
